Drawing on patent US20030187007A1, “Inhibitors of protein kinase for the treatment of disease” (priority 2001, published 2003), this text covers IC50 for 31 molecules.

Common to all, as to assay type: biochemical
The target in one test is CDK5 complexed with p25 (Homo sapiens, UniProt Q00535). Briefly: Cyclin dependent kinase activity assay, phosphorylation of synthetic peptide PKTPKKAKKLRRR
The conditions noted are these: CDK5 complexed with p25, 0.1 mM ATP; read-out: CDK 5 Activity*. How it is done: (§1) The assay of cyclin dependent kinase activity was determined by monitoring the phosphorylation of a synthetic peptide, PKTPKKAKKLRRR. The assay mixture contained 0.1 mM cold ATP, ^33P-γ-ATP (2000-4000 cpm/μL), 0.1 mM peptide, 1 mM DTT, and 10 mM MgCl2 in 100 mM HEPES buffer pH 7.4. The assay mixture, along with inhibitor and CDK enzyme (0.3-0.4 U/mL; either CDK5 complexed with p25, CDK2 complexed with complexed with cyclin A), was mixed together in a microtiter plate in a final volume of 40 μL, sealed and incubated for 2 hours at 30° C. Following incubation, a 15 μL aliquot was added to a Whatman P81 filtration plate containing 100 μL 0.5% phosphoric acid. This mixture was allowed to stand for 5 minutes prior to filtration on a vacuum manifold. The filter plate was washed with 5 successive additions of 300 μL 0.5% phosphoric acid. The filtration plate was air dried for 10 minutes before sealing the bottom. After addition of scintillation fluid to the sealed plate, phosphorylated peptide was quantified in a scintillation counter.

For test [1], the target named is CDK2 complexed with cyclin A (Homo sapiens, UniProt P24941). The description is as above. As to conditions: 0.1 mM ATP, read-out: CDK 2 Activity*. How it is done: as §1
The target of a further test is KDR (Homo sapiens, UniProt P35968). Briefly: Enzyme assay for  (KDR), IC50 determination. As to conditions: 50 nM KDR, 500 μM ATP. How it is done:
Enzyme assays for IC50 determinations were performed in 96-well titer plates, in a total reaction volume of 50 μL. Each reaction contained 1.5 μL of appropriate dilutions of inhibitor, 50 mM Hepes, pH 7.4, 1 mM DTT, 10 mM magnesium chloride, 2 mM phospho-poly(E4Y) (Sigma Chemical Company), 500 μM unlabeled ATP, 0.0025 μM [^33P]ATP (Amersham Pharmacia Biotech), and 50 nM KDR. All components except KDR were added to the wells, and the reaction was started by the addition of the enzyme. The reactions were mixed and incubated at room temperature for 1 hr, after which the reactions were quenched by the addition of 50 μL of 8% phosphoric acid. At this point, 90 μL aliquots of the samples were applied to positively charged DEAE 96-well filter plates (Millipore Corporation MADENOB10). The plates were incubated for 30 min at room temperature. The samples were aspirated and the wells were washed 3 times with 200 μL of 0.5% phosphoric acid. To each well, 50 μL of scintillation cocktail was added and counted for 60 sec in a TopCount microplate scintillation counter (Packard Instrument Company). The concentration of a compound that inhibited the activity of KDR by 50% (IC50) was determined based its inhibition curve.

Structures can show the parent of a compound that is named as a salt.

KDR, sequence (P35968 20-1356): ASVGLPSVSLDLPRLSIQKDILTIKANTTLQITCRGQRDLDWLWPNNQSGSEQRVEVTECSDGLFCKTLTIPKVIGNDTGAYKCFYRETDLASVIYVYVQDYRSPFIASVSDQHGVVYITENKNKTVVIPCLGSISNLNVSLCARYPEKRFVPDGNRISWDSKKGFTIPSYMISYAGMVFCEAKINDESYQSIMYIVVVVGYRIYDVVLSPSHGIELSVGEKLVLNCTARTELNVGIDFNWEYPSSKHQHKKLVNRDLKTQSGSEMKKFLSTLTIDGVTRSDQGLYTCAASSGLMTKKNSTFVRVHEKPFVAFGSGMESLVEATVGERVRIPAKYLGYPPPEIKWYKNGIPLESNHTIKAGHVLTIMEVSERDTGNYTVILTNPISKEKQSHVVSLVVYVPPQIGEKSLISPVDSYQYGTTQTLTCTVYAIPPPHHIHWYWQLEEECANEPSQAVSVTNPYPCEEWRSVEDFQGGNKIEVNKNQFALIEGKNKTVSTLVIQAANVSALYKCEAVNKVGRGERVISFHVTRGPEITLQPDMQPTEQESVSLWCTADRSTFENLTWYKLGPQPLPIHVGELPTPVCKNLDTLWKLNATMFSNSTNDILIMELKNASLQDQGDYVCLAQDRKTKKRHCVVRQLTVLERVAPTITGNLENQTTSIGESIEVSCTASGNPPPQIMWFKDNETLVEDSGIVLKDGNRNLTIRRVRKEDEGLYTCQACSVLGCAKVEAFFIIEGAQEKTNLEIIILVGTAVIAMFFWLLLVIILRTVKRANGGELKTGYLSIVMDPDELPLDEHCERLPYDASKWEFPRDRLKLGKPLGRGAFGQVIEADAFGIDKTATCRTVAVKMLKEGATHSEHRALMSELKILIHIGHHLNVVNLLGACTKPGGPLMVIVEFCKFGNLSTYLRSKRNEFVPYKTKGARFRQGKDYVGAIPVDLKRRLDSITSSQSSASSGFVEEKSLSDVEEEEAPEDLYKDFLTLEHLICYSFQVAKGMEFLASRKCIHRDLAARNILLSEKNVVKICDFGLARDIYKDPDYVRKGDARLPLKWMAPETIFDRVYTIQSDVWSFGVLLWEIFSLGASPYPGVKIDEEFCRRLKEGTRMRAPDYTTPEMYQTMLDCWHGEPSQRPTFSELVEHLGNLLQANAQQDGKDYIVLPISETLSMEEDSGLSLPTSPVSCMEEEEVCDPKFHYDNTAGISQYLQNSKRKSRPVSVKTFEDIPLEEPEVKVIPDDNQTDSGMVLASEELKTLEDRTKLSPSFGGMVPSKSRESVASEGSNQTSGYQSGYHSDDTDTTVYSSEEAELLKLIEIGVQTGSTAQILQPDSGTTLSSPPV
CDK5 complexed with p25, sequence (Q00535 whole entry): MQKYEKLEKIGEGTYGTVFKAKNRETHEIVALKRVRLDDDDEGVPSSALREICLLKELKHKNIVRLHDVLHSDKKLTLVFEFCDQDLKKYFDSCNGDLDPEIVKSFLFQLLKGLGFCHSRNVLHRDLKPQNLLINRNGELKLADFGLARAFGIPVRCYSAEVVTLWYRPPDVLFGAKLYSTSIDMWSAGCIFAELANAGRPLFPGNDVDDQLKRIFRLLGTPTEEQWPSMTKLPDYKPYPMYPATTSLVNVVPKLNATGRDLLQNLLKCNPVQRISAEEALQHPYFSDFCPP
CDK5 complexed with p25, sequence (Q15078 99-307 partner limits assumed): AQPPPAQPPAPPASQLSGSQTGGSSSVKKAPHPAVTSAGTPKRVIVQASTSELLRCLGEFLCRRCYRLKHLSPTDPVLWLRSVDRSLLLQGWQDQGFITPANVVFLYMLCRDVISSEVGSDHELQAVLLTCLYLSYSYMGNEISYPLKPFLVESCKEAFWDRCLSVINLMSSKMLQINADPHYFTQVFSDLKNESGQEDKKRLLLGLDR

As to `Nc1nc(-c2cc(-c3ccc(O)cc3)ccc2O)cs1` [Example 61, 3-(2-Amino-thiazol-4-yl)-biphenyl-4,4′-diol], the IC50 was under 500 nM on CDK5 complexed with p25, under 500 nM in test [1] and 1000 to 20000 nM against KDR.
For the molecule `NC(=S)N/N=C/c1cc(-c2ccc(O)c(F)c2)ccc1O` [Example 23, 5-(3-Fluoro-4-hydroxyphenyl)salicylaldehyde thiosemicarbazone], the IC50 on CDK5 complexed with p25 was under 500 nM; in test [1], under 500 nM; at KDR, 1000 to 20000 nM.
Take `Nc1cc(-c2ccc(O)c(-c3ccnc(N)n3)c2)ccn1` [Example 67, 4-(2-Amino-pyridin-4-yl)-2-(2-amino-pyrimidin-4-yl)-phenol]: the IC50 is under 500 nM in test [1] and under 1000 nM at KDR.
Consider `Nc1ccc(-c2cc(-c3cc(-c4ccc(O)cc4)ccc3O)nc(N)n2)cc1` [Example 90, 3-[2-Amino-6-(4-amino-phenyl)-pyrimidin-4-yl]-biphenyl-4,4′-diol], for which the IC50 at CDK5 complexed with p25 is under 500 nM; in test [1], under 500 nM; against KDR, under 1000 nM.
As for `NC(=O)N/N=C/c1cc(-c2ccc(O)cc2)ccc1O` [Example 22, 5-(4-Hydroxyphenyl)salicylaldehyde semicarbazone hydrochloride], the IC50 on CDK5 complexed with p25 was under 500 nM; in test [1], under 500 nM; against KDR, 1000 to 20000 nM.
For the molecule `Nc1nc(N[C@@H](CO)Cc2ccccc2)cc(-c2cc(-c3ccc(O)cc3)ccc2O)n1` [Example 86, 3-[2-Amino-6-(1R-benzyl-2-hydroxy-ethylamino)-pyrimidin-4-yl]-biphenyl-4,4′-diol], the IC50 on CDK5 complexed with p25 was under 500 nM; in test [1] it was under 500 nM; against KDR, 1000 to 20000 nM.
On to `Nc1nc(N)nc(-c2cc(-c3ccc(O)cc3)ccc2O)n1` [Example 58, 3-(4.6-Diamino-[1,3,5]triazin-2-yl)-biphenyl-4,4′-diol], for which the IC50 at CDK5 complexed with p25 is under 500 nM; in test [1] it was under 500 nM; against KDR, under 1000 nM.
Turning to `CC(C)[C@@H](CO)Nc1cc(-c2cc(-c3ccc(O)cc3)ccc2O)nc(N)n1` [Example 103, 3-[2-Amino-6-(I -hydroxymethyl-2-methyl-propylamino)pyrimidin-4-yl]-biphenyl-4.4′-diol], on KDR, the IC50 was in the range of 1000 to 20000 nM.
`Nc1nc(-c2cc(-c3ccc(O)cc3)ccc2O)cc(N2CCOCC2)n1` [Example 81, 3-(2-Amino-6-morpholin-4-yl-pyrimidin-4-yl)-biphenyl-4,4′-diol]: the IC50 at CDK5 complexed with p25 was under 500 nM; in test [1], under 500 nM; against KDR it was 1000 to 20000 nM.
For the molecule `Nc1nc(NCc2cccc(F)c2)cc(-c2cc(-c3ccc(O)cc3)ccc2O)n1` [Example 115, 3-[2-Amino-6-(3-fluoro-benzylamino)-pyrimidin-4-yl]-biphenyl-4,4′-diol], the IC50 against KDR lay in the range of 1000 to 20000 nM.
For `Nc1nc(-c2ccc([N+](=O)[O-])cc2)cc(-c2cc(-c3ccc(O)cc3)ccc2O)n1` [Example 89, 3-[2-Amino-6-(4-nitro-phenyl)-pyrimidin-4-yl]-biphenyl-4,4′-diol], the IC50 on CDK5 complexed with p25 is under 500 nM; in test [1], under 500 nM; on KDR, 1000 to 20000 nM.
In turn, `Nc1nc(Nc2ccc(Cl)cc2)cc(-c2cc(-c3ccc(O)cc3)ccc2O)n1` [Example 110, 3-[2-Amino-6-(4-chloro-phenylamino)-pyrimidin-4-yl]-biphenyl-4,4′-diol] yielded an IC50 against KDR of under 1000 nM.
For the molecule `Nc1nc(-c2cc(-c3ccc(O)cc3)ccc2O)cc(N2CCC[C@@H]2CO)n1` [Example 80, 3-[2-Amino-6-(2S-hydroxymethyl-pyrrolidin-1-yl)-pyrimidin-4-yl]-biphenyl-4,4′-diol], the IC50 on CDK5 complexed with p25 was under 500 nM; in test [1], under 500 nM; on KDR, 1000 to 20000 nM.
On to `NC(=S)N/N=C/c1cc(-c2ccc3[nH]ccc3c2)ccc1O` [Example 36, 5-(5-Indolyl)salicylaldehyde thiosemicarbazone], for which the IC50 on CDK5 complexed with p25 was under 500 nM; in test [1], under 500 nM; against KDR, 20000 to 50000 nM.
With `Nc1nc(NCCN2CCOCC2)cc(-c2cc(-c3ccc(O)cc3)ccc2O)n1` [Example 105, 3-[2-Amino-6-(2-morpholin-4-yl-ethylamino)-pyrimidin-4-yl]-biphenyl-4,4′-diol], the IC50 at KDR was 1000 to 20000 nM.
As to `Nc1cccc(-c2cc(-c3cc(-c4ccc(O)cc4)ccc3O)nc(N)n2)c1` [Example 91, 3-[2-Amino-6-(3-amino-phenyl)-pyrimidin-4-yl]-biphenyl-4,4′-diol], the values for the IC50 (at CDK5 complexed with p25; in test [1]; on KDR) were under 500 nM, under 500 nM and under 1000 nM, respectively.
Consider `Nc1nc(-c2cc(-c3ccc(O)cc3)ccc2O)cc(-c2ccccc2CO)n1` [Example 83, 3-[2-Amino-6-(2-hydroxymethyl-phenyl)-pyrimidin-4-yl-biphenyl-4,4]-diol], for which the IC50 was under 500 nM on CDK5 complexed with p25, under 500 nM in test [1] and under 1000 nM at KDR.
In the case of `Nc1nc(NCCc2c[nH]c3ccccc23)cc(-c2cc(-c3ccc(O)cc3)ccc2O)n1` [Example 100, 3-{2-Amino-6-[2-(1-indol-3-yl)-ethylamino]-pyrimidin-4-yl} biphenyl-4,4′-diol], at KDR, the IC50 was under 1000 nM.
Still for that read-out and setting: as for `Nc1nc(-c2ccc3[nH]ccc3c2)cc(-c2cc(-c3ccc(O)cc3)ccc2O)n1` [Example 114], the figure is under 1000 nM.
Regarding `Nc1nccc(-c2cc(-c3ccc4[nH]ccc4c3)ccc2O)n1` [Example 60, 2-(2-Amino-pyrimidin-4-yl)-4-(1H-indol-5-yl)-phenol], the values for the IC50 (on CDK5 complexed with p25; in test [1]; on KDR) were under 500 nM, 2000 to 5000 nM and under 1000 nM, respectively.
As for `Nc1nc(-c2ccc(CO)cc2)cc(-c2cc(-c3ccc(O)cc3)ccc2O)n1` [Example 85, 3-[2-Amino-6-(4-hydroxymethyl-phenyl)-pyrimidin-4-yl]-biphenyl-4,4′-diol], the IC50 at CDK5 complexed with p25 was under 500 nM; in test [1], under 500 nM; against KDR it was under 1000 nM.
At KDR, `Nc1nc(-c2ccsc2)cc(-c2cc(-c3ccc(O)cc3)ccc2O)n1` [Example 113, 3-(2-Amino-6-thiophen-3-yl-pyrimidin-4-yl)-biphenyl-4,4′-diol] gave an IC50 of 1000 to 20000 nM.
As to `NC(=S)N/N=C/c1cc(-c2ccc(O)c(O)c2)ccc1O` [Example 25, 5-(3,4-Dihydroxyphenyl)salicylaldehyde thiosemicarbazone], the IC50 at CDK5 complexed with p25 is under 500 nM; in test [1] it was under 500 nM; against KDR it was under 1000 nM.
Turning to `Nc1nc(-c2cccc([N+](=O)[O-])c2)cc(-c2cc(-c3ccc(O)cc3)ccc2O)n1` [Example 88, 3-[2-Amino-6-(3-nitro-phenyl)-pyrimidin-4-yl]-biphenyl-4,4′-diol], the IC50 was under 500 nM at CDK5 complexed with p25, under 500 nM in test [1] and 1000 to 20000 nM at KDR.
`COc1ccc(CNc2cc(-c3cc(-c4ccc(O)cc4)ccc3O)nc(N)n2)cc1` [Example 118, 3-[2-Amino-6-(4-methoxy-benzylamino)-pyrimidin-4-yl]-biphenyl-4,4′-diol] gave an IC50 at KDR of under 1000 nM.
On the same count and under the same terms, the result for `Nc1cccc(-c2ccc(O)c(-c3ccnc(N)n3)c2)c1` [Example 94, 3′-Amino-3-(2-amino-pyrimidin-4-yl)-biphenyl-4-ol] reads 1000 to 20000 nM.
For `Nc1nc(Nc2ccc(O)cc2F)cc(-c2cc(-c3ccc(O)cc3)ccc2O)n1` [Example 119, 3-[2-Amino-6-(2-fluoro-4-hydroxyphenylamino)-pyrimidin-4-yl]-biphenyl-4,4′-diol], the IC50 on KDR was in the range of 1000 to 20000 nM.
Still for that read-out and setting: as for `Nc1nc(NCc2ccccc2F)cc(-c2cc(-c3ccc(O)cc3)ccc2O)n1` [Example 116], the figure is under 1000 nM; as for `Nc1nc(N[C@@H](CO)c2ccccc2)cc(-c2cc(-c3ccc4[nH]ccc4c3)ccc2O)n1` [Example 93, 2-[2-Amino-6-(2-hydroxy-1 R-phenyl-ethylamino)-pyrimidin-4-yl]-4-(1H-indol-5-yl)-phenol], under 1000 nM.
In turn, `Nc1nc(N[C@@H](CO)c2ccccc2)cc(-c2cc(-c3ccc(O)cc3)ccc2O)n1` [Example 112, 3-[2-Amino-6-(2-hydroxy-1-phenyl-ethylamino)-pyrimidin-4-yl]-biphenyl-4,4′-diol] had an IC50 at KDR of under 1000 nM.
Still for that read-out and setting: the result for `Nc1nc(N[C@@H](CO)Cc2c[nH]c3ccccc23)cc(-c2cc(-c3ccc(O)cc3)ccc2O)n1` [Example 96, 3-{2-Amino-6-[2-hydroxy-1R-(1H-indol-3-ylmethyl)-ethylamino]-pyrimidin-4-yl}-biphenyl-4,4′-diol] reads 1000 to 20000 nM.
